Starred links: 1 amine or outer side, 2 acyl side, 3 side chain; linkers in the order of their positions; H or OH if unused. Positions of bridges follow the written chain, without caps; N, C: chain ends. Non-standard residues stand in square brackets, D forms with d. Residues, ends and D or L forms follow the SMILES beside them. Groups on a side chain read outwards from the residue. *: point of attachment. Me3N+(CH2)2O(CH2)2O(CH2)2CO = C[N+](C)(C)CCOCCOCCC(=O)*; Trp(7-Me) = Cc1cccc2c(C[C@H](N)C(=O)O)c[nH]c12; Phe(4-CH2NH2) = NCc1ccc(C[C@H](N)C(=O)O)cc1; Abu(4-yl) = O=C([C@H](CC[*:3])N[*:1])[*:2]; γGlu = O=C(O)[C@H](CCC(=O)[*:2])N[*:1]; 2Nal = N[C@@H](Cc1ccc2ccccc2c1)C(=O)O; AEF = NCCOc1ccc(C[C@H](N)C(=O)O)cc1; dNMeY = CN[C@H](Cc1ccc(O)cc1)C(=O)O; 3Pal = N[C@@H](Cc1cccnc1)C(=O)O; Lys(Me) = CNCCCC[C@H](N)C(=O)O; NMeK = CN[C@@H](CCCCN)C(=O)O; Pen = CC(C)(S)[C@H](N)C(=O)O; αMeK = C[C@](N)(CCCCN)C(=O)O; Lauroyl = CCCCCCCCCCCC(=O)*; αMeC = C[C@](N)(CS)C(=O)O; Ac6c = NC1(C(=O)O)CCCCC1; Thp = NC1(C(=O)O)CCOCC1; X3 = C[N+](C)(C)CCCCC*; AEEA = NCCOCCOCC(=O)O; Sar = CNCC(=O)O
Tests used:
IL-23R = target: T1, IL-23R (Homo sapiens, UniProt Q5VWK5); assay: IL23R Reporter Assay; format: cell-based; details: HEK293 cells containing IL-23R, IL-12RP1 and STAT-inducible firefly luciferase reporter; 10 ng/mL IL-23 (EC90); 5 h at 37° C.; read-out: IL23R Reporter Assay
T1 construct: host or cells: HEK293
T1 sequence (Q5VWK5 24-629): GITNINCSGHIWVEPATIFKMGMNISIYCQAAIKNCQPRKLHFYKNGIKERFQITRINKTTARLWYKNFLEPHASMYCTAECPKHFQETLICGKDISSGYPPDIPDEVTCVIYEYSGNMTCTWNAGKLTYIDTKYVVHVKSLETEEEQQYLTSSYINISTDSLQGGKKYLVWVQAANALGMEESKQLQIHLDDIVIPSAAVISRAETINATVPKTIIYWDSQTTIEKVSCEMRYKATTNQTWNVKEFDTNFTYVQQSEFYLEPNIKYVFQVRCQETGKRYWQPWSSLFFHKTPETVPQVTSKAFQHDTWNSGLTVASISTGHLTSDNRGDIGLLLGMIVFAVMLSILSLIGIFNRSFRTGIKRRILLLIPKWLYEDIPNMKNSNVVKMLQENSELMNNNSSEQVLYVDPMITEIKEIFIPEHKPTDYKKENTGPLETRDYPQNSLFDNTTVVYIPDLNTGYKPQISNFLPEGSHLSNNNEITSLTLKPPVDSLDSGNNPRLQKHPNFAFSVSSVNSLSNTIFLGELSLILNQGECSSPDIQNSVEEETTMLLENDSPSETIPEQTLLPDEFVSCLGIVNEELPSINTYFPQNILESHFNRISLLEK

[1] = Exposed Polar Surface Area (EPSA); format: physicochemical; details: SFC on Chirex 3014 column; sample 1 mM DMSO stock
How it was run: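 Polarity measured by SFC on a Chirex 3014 column (35 °C, 4 mL/min) with methanol/ammonium formate in CO2 as gradient eluent. Retention times were normalised to EPSA (Å^2) against eight reference compounds.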

Row | Molecule | IC50 (IL-23R) [nM] | EPSA [1] [Å^2]
1 | cPEG3aCO-k(PEG2PEG2gEC14)-Pen(3)-N(N(Me)2)-T-7MeW-K(NMeAc)-Pen(3)-TMAPF-2Nal-THP-K(NMeAc)-N-3Pya-Sar-CON(Me)2 [compound 379] | 12 | 149.74
2 | CCCCCCCCCCCC(=O)N[C@@H](CCC(=O)NCCOCCOCC(=O)NCCOCCOCC(=O)NCCCC[C@@H](C(N)=O)N(C)C(=O)[C@H](Cc1cccnc1)NC(=O)[C@H](CC(N)=O)NC(=O)[C@H](CCCCN(C)C(C)=O)NC(=O)C1(NC(=O)[C@H](Cc2ccc3ccccc3c2)NC(=O)[C@H](Cc2ccc(OCCCCC[N+](C)(C)C)cc2)NC(=O)[C@H]2NC(=O)[C@H](CCCCN(C)C(C)=O)NC(=O)[C@H](Cc3c[nH]c4c(C)cccc34)NC(=O)[C@H]([C@@H](C)O)NC(=O)[C@H](CC(=O)N(C)C)NC(=O)[C@@H](NC(=O)CCOCCOCC[N+](C)(C)C)C(C)(C)SSC2(C)C)CCOCC1)C(=O)O [compound 314, cPEG3aCO-Pen(3)-N(N(Me)2)-T-7MeW-K(NMeAC)-Pen(3)-TMAPF-2Nal-THP-K(NMeaC)-N-3Pya-NMeK(PEG2PEG2gEC12)-CONH2] ({Me3N+(CH2)2O(CH2)2O(CH2)2CO}-[Pen]D(NMe2)T[Trp(7-Me)][Lys(Me)](Ac)[Pen]Y(X3)[2Nal][Thp][Lys(Me)](Ac)N[3Pal][NMeK]([AEEA-AEEA-γGlu-Lauroyl])-NH2; disulfide 1-6) | 7 | 
3 | CC(=O)NCCCC[C@H](NC(=O)[C@](C)(CCCCN)NC(=O)[C@H](Cc1ccc2ccccc2c1)NC(=O)[C@H](Cc1ccc(OCCN)cc1)NC(=O)[C@H]1NC(=O)[C@H](Cc2ccc(CNC(C)=O)cc2)NC(=O)[C@H](Cc2c[nH]c3c(C)cccc23)NC(=O)[C@H]([C@@H](C)O)NC(=O)[C@H](CC(N)=O)NC(=O)[C@@H](NC(C)=O)C(C)(C)SSC1(C)C)C(=O)N[C@@H](CC(N)=O)C(=O)N[C@H](CCCCN)C(=O)N(C)[C@H](Cc1ccc(O)cc1)C(N)=O [compound 23, MeCO-Pen(3)-N-T-7MeW-Paf(Ac)-Pen(3)-AEF-2Nal-aMeK-K(Ac)-N-k-NMeDTyr-CONH2] (Ac-[Pen]NT[Trp(7-Me)][Phe(4-CH2NH2)](Ac)[Pen][AEF][2Nal][αMeK]K(Ac)N[dK][dNMeY]-NH2; disulfide 1-6) | 150 | 
4 | CCCCCCCCCCCC(=O)N[C@@H](CCC(=O)NCCOCCOCC(=O)NCCOCCOCC(=O)NCCCC[C@@H]1NC(=O)[C@@H](NC(=O)CCOCCOCC[N+](C)(C)C)C(C)(C)SSC(C)(C)[C@@H](C(=O)N[C@@H](Cc2ccc(OCCCCC[N+](C)(C)C)cc2)C(=O)N[C@@H](Cc2ccc3ccccc3c2)C(=O)NC2(C(=O)N[C@@H](CCCCN(C)C(C)=O)C(=O)N[C@@H](CC(N)=O)C(=O)N[C@@H](Cc3cccnc3)C(=O)N(C)CC(=O)N(C)C)CCOCC2)NC(=O)[C@H](CCCCN(C)C(C)=O)NC(=O)[C@H](Cc2c[nH]c3c(C)cccc23)NC(=O)[C@H]([C@@H](C)O)NC1=O)C(=O)O [compound 387, cPEG3aCO-Pen(3)-K(PEG2PEG2gEC12)-T-7MeW-K(NMeAc)-Pen(3)-TMAPF-2Nal-THP-K(NMeAc)-N-3Pya-Sar-CON(Me)2] ({Me3N+(CH2)2O(CH2)2O(CH2)2CO}-[Pen]K([AEEA-AEEA-γGlu-Lauroyl])T[Trp(7-Me)][Lys(Me)](Ac)[Pen]Y(X3)[2Nal][Thp][Lys(Me)](Ac)N[3Pal][Sar]-NMe2; disulfide 1-6) | 12 | 
5 | CC(=O)N[C@@H]1C(=O)N[C@@H](CC(=O)N(C)C)C(=O)N[C@@H]([C@@H](C)O)C(=O)N[C@@H](Cc2c[nH]c3c(C)cccc23)C(=O)N[C@@H](COCCOCC[N+](C)(C)C)C(=O)N[C@H](C(=O)N[C@@H](Cc2ccc(OCCOCCOCC[N+](C)(C)C)cc2)C(=O)N[C@@H](Cc2ccc3ccccc3c2)C(=O)NC2(C(=O)N[C@@H](CCCCN(C)C(C)=O)C(=O)N[C@@H](CC(N)=O)C(=O)N[C@@H](Cc3cccnc3)C(=O)N(C)CC(=O)N(C)C)CCOCC2)C(C)(C)SSC1(C)C (relative stereo) [compound 267, MeCO-Pen(3)-N(N(Me)2)-T-7MeW-APEG2Ser(S*)-Pen(3)-APEG3F-2Nal-THP-K(NMeAc)-N-3Pya-Sar-CON(Me)2] | 4.2 | 
6 | CC(=O)N(C)CCCC[C@@H]1NC(=O)[C@H](Cc2c[nH]c3c(C)cccc23)NC(=O)[C@H]([C@@H](C)O)NC(=O)[C@H](CC(=O)N(C)C)NC(=O)[C@@H](NC(=O)CCOCCOCC[N+](C)(C)C)C(C)(C)SSC(C)(C)[C@@H](C(=O)N[C@@H](Cc2ccc(OCCNC(=O)CCOCCOCC[N+](C)(C)C)cc2)C(=O)N[C@@H](Cc2ccc3ccccc3c2)C(=O)NC2(C(=O)N[C@@H](CCCCN(C)C(C)=O)C(=O)N[C@@H](CC(N)=O)C(=O)N[C@@H](Cc3cccnc3)C(=O)N(C)CC(=O)N(C)C)CCOCC2)NC1=O [compound 571, cPEG3aCO-Pen(3)-N(N(Me)2)-T-7MeW-K(NMeAc)-Pen(3)-AEF(cPEG3a)-2Nal-THP-K(NMeAc)-N-3Pya-Sar-CONMe2] ({Me3N+(CH2)2O(CH2)2O(CH2)2CO}-[Pen]D(NMe2)T[Trp(7-Me)][Lys(Me)](Ac)[Pen][AEF](Me3N+(CH2)2O(CH2)2O(CH2)2CO)[2Nal][Thp][Lys(Me)](Ac)N[3Pal][Sar]-NMe2; disulfide 1-6) | 3.5 | 
7 | CC(=O)NCCCC[C@@H]1NC(=O)[C@H](Cc2c[nH]c3ccccc23)NC(=O)[C@H]([C@@H](C)O)NC(=O)[C@H](CC(N)=O)NC(=O)[C@@H](NC(=O)[C@@H](CCCNC(=N)N)NC(=O)CCOCCOCC[N+](C)(C)C)CCSC[C@@](C)(C(=O)N[C@@H](Cc2ccc(OCCN)cc2)C(=O)N[C@@H](Cc2ccc3ccccc3c2)C(=O)NC2(C(=O)N[C@@H](CCCCNC(C)=O)C(=O)N[C@@H](CC(N)=O)C(=O)N[C@@H](Cc3cccnc3)C(=O)N(C)CC(N)=O)CCCCC2)NC1=O [compound 548, cPEG3aCO-r-Abu(1)-N-T-W-K(Ac)-aMeC(1)-AEF-2Nal-THP-K(Ac-N-3Pya-Sar-CONH2] ({Me3N+(CH2)2O(CH2)2O(CH2)2CO}-[dR][Abu(4-yl)]NTWK(Ac)[αMeC][AEF][2Nal][Ac6c]K(Ac)N[3Pal][Sar]-NH2; thioether 2-7) | 6.4 | 
8 | CC(=O)NCCCC[C@@H]1NC(=O)[C@H](Cc2c[nH]c3c(C)cccc23)NC(=O)[C@H]([C@@H](C)O)NC(=O)[C@H](CC(N)=O)NC(=O)[C@@H](NC(C)=O)C(C)(C)SSC(C)(C)[C@@H](C(=O)N[C@@H](Cc2ccc(OCCN)cc2)C(=O)N[C@@H](Cc2ccc3ccccc3c2)C(=O)NC2(C(=O)N[C@@H](CCC(=O)O)C(=O)N[C@@H](CC(N)=O)C(=O)N[C@@H](Cc3cccnc3)C(=O)N(C)CC(=O)N(C)C)CCOCC2)NC1=O [compound 276] (Ac-[Pen]NT[Trp(7-Me)]K(Ac)[Pen][AEF][2Nal][Thp]EN[3Pal][Sar]-NMe2; disulfide 1-6 (inferred)) | 55 | 
9 | CC(=O)NCCCC[C@@H]1NC(=O)[C@H](Cc2c[nH]c3c(C)cccc23)NC(=O)[C@H]([C@@H](C)O)NC(=O)[C@H](CC(N)=O)NC(=O)[C@@H](NC(C)=O)C(C)(C)SSC(C)(C)[C@@H](C(=O)N[C@@H](Cc2ccc(OCCCC[N+](C)(C)C)cc2)C(=O)N[C@@H](Cc2ccc3ccccc3c2)C(=O)NC2(C(=O)N[C@@H](CCC(=O)O)C(=O)N[C@@H](CC(N)=O)C(=O)N[C@@H](Cc3cccnc3)C(=O)N(C)CC(N)=O)CCOCC2)NC1=O [compound 550, MeCO-Pen(3)-N-T-7MeW-K(Ac)-Pen(3)-TMA4F-2Nal-THP-N-3Pya-Sar-CONH2] | 5.5 | 

Source: patent US20260022143A1, “Cyclic Peptide Inhibitors of IL-23” (JANSSEN PHARMACEUTICA NV, priority 2022, published 2026)
